Reference: patent US20030099693A1, “Wafer” (priority 2001, published 2003)

Legend:
Assay type in all cases: biochemical
Details in all cases: Adjusted for Plasma Protein Binding
[1] = target: MMP-14 (Homo sapiens, UniProt P50281); assay: Concentration for 50% enzyme inhibition, MMP-14
[2] = target: T1, MMP-2 (Homo sapiens, UniProt P08253); assay: Concentration for 50% enzyme inhibition, MMP-2
T1 sequence (P08253 110-660): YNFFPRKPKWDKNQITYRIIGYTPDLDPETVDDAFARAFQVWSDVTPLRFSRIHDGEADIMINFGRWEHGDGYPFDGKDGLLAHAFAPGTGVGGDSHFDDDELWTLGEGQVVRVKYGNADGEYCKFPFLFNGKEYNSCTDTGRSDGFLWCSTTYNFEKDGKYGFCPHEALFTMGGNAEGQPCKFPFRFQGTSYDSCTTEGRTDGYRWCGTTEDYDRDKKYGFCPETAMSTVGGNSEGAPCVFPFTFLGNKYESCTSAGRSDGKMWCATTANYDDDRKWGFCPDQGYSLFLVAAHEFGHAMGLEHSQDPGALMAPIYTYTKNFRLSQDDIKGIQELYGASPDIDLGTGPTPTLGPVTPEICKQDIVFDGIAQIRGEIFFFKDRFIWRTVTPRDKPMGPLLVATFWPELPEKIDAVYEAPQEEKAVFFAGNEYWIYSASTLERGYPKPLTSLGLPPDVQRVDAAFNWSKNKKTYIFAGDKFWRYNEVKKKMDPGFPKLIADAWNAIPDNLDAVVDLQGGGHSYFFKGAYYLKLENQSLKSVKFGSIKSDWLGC

[3] = target: MMP-9 (Homo sapiens, UniProt P14780); assay: Concentration for 50% enzyme inhibition, MMP-9
Chain of MMP-9 (P14780 94-707, species assumed): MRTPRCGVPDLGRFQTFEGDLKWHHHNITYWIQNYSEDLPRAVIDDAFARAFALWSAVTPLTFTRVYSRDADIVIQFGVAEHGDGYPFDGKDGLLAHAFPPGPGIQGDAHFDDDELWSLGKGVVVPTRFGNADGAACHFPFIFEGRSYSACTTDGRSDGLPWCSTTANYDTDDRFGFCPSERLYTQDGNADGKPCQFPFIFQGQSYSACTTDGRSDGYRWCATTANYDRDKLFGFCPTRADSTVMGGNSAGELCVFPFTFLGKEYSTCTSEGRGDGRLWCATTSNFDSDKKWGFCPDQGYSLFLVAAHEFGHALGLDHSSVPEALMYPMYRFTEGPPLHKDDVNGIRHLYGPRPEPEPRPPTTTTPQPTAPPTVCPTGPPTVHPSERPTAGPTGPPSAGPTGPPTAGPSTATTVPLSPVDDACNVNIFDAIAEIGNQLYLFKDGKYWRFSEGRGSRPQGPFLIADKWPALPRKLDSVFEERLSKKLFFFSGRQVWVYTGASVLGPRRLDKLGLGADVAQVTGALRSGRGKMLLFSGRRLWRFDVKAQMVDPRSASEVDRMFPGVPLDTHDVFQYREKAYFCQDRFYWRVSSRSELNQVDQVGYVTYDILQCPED
Source text: (§1) The solubility range to achieve efficacious doses without adverse effects for a range of protease inhibitors is shown in Table 1.

[4] = target: MMP-3 (Homo sapiens, UniProt P08254); assay: Concentration for 50% enzyme inhibition, MMP-3
Chain of MMP-3 (P08254 100-477, species assumed): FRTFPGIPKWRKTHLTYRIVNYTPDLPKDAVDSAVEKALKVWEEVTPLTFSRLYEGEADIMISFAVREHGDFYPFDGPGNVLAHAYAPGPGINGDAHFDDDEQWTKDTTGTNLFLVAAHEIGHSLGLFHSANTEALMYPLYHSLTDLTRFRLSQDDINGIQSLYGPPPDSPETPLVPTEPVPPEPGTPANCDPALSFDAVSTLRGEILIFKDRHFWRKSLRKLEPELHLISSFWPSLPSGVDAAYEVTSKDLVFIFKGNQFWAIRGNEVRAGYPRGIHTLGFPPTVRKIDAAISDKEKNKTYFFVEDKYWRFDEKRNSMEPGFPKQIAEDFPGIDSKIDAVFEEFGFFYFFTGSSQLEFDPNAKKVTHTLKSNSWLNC

[5] = target: TPA (Homo sapiens, UniProt P00750); assay: Concentration for 50% enzyme inhibition, TPA
Chain of TPA (P00750 36-562, species assumed): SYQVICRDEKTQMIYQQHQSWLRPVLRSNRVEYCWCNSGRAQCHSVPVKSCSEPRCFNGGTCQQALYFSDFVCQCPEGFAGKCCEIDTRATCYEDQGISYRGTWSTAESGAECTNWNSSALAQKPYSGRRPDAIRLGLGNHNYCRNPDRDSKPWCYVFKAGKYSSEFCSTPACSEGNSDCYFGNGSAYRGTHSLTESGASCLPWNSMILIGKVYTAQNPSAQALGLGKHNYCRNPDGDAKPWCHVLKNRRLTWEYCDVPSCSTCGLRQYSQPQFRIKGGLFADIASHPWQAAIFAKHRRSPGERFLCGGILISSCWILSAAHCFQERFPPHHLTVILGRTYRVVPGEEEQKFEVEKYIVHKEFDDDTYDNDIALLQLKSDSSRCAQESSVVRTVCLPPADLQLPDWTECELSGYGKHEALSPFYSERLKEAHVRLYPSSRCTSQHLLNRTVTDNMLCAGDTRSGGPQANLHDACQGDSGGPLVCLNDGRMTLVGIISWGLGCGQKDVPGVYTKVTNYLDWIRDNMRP
Source text: as §1

[6] = target: uPA (Homo sapiens, UniProt P00749); assay: Concentration for 50% enzyme inhibition, uPA
[7] = target: Plasmin (Homo sapiens, UniProt P00747); assay: Concentration for 50% enzyme inhibition, Plasmin
Chain of Plasmin (P00747 581-810 limits assumed, species assumed): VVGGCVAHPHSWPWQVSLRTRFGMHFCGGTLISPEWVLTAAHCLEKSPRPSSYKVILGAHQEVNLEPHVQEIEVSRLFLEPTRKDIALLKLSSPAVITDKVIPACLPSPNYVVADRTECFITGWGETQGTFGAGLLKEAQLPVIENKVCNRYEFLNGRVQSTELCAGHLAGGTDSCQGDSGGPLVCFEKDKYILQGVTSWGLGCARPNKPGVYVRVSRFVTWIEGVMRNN
Chain of Plasmin (P00747 97-580 partner limits assumed, species assumed): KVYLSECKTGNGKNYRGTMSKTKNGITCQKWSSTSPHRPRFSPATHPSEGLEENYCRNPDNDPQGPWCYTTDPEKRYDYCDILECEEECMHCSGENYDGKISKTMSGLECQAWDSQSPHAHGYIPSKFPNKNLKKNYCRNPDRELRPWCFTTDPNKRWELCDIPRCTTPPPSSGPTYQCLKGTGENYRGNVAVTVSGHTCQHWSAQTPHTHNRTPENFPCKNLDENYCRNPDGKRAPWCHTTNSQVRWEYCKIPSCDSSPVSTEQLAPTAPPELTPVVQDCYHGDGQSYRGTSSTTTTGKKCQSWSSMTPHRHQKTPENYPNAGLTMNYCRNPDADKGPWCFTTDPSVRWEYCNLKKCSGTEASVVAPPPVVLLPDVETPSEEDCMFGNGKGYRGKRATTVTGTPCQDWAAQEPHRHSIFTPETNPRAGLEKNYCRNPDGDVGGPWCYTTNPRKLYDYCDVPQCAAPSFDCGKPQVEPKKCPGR
Source text: as §1

IC50 [1]	IC50 [2]	IC50 [3]	IC50 [4]	IC50 [5]	IC50 [6]	IC50 [7]	SMILES
35.6 mM	27.2 mM	16.6 mM	0.0175 mM				COC[C@@H](NC(=O)[C@@H](NC(=O)[C@H](CCCc1ccc(-c2ccccc2)c(C)c1)CC(=O)O)C(C)(C)C)c1ccccc1 [A, (3R)-3-({[(1S)-2,2-Dimethyl-1-({[(1S)-2-methoxy-1-phenylethyl]amino}carbonyl)-propyl]amino}carbonyl)-6-[(3-methyl-4-phenyl)phenyl]hexanoic acid]
				> 33.2 mM	0.0117 mM	33.2 mM	NC(N)=Nc1ncc(Cl)c2ccc(-c3cccc(C(=O)O)c3)cc12 [inhibitor X, 3-(4-Chloro-1-guanidino-7-isoquinolyl)benzoic acid]
